Assay results: the kinase profiling compilation of Christmann-Franck et al. (2016)

Legend:
Test in all cases: radiometric filter-binding kinase assay
[1] = test system: AKT2 (human), P31751 [S474D]
AURKA (human) = AURKA (human) (UniProt O14965)
AURKB (human) = AURKB (human) (UniProt Q96GD4)
CHEK1 (human) = CHEK1 (human) (UniProt O14757)
CSNK1D (human) = CSNK1D (human) (UniProt P48730)
EEF2K (human) = EEF2K (human) (UniProt O00418)
EPHB1 (human) = EPHB1 (human) (UniProt P54762)
EPHB4 (human) = EPHB4 (human) (UniProt P54760)
FGFR1 (human) = FGFR1 (human) (UniProt P11362)
FLT1 (human) = FLT1 (human) (UniProt P17948)
GCK (human) = GCK (human) (UniProt Q12851)
GSK3B (human) = GSK3B (human) (UniProt P49841)
HIPK1 (human) = HIPK1 (human) (UniProt Q86Z02)
HIPK2 (human) = HIPK2 (human) (UniProt Q9H2X6)
IGF1R (human) = IGF1R (human) (UniProt P08069)
MAP2K2 (human) = MAP2K2 (human) (UniProt P36507)
MAP3K1 (human) = MAP3K1 (human) (UniProt Q13233)
MAP3K5 (human) = MAP3K5 (human) (UniProt Q99683)
MAP3K9 (human) = MAP3K9 (human) (UniProt P80192)
MAPK1 (human) = MAPK1 (human) (UniProt P28482)
MAPK10 (human) = MAPK10 (human) (UniProt P53779)
MAPK13 (human) = MAPK13 (human) (UniProt O15264)
MAPK9 (human) = MAPK9 (human) (UniProt P45984)
MARK4 (human) = MARK4 (human) (UniProt Q96L34)
MELK (human) = MELK (human) (UniProt Q14680)
MYLK (human) = MYLK (human) (UniProt Q15746)
[2] = test system: PAK2 (human), Q13177 [T402E]
PAK6 (human) = PAK6 (human) (UniProt Q9NQU5)
PKN2 (human) = PKN2 (human) (UniProt Q16513)
PRKCZ (human) = PRKCZ (human) (UniProt Q05513)
SRC (human) = SRC (human) (UniProt P12931)
[3] = target: STK11 CAB39 STRADA (human) (UniProt Q9Y376+Q7RTN6+Q15831)
SYK (human) = SYK (human) (UniProt P43405)
TAOK1 (human) = TAOK1 (human) (UniProt Q7L7X3)
TTK (human) = TTK (human) (UniProt P33981)
YES1 (human) = YES1 (human) (UniProt P07947)

MAP3K5 (human), sequence (Q99683 whole entry, looked up): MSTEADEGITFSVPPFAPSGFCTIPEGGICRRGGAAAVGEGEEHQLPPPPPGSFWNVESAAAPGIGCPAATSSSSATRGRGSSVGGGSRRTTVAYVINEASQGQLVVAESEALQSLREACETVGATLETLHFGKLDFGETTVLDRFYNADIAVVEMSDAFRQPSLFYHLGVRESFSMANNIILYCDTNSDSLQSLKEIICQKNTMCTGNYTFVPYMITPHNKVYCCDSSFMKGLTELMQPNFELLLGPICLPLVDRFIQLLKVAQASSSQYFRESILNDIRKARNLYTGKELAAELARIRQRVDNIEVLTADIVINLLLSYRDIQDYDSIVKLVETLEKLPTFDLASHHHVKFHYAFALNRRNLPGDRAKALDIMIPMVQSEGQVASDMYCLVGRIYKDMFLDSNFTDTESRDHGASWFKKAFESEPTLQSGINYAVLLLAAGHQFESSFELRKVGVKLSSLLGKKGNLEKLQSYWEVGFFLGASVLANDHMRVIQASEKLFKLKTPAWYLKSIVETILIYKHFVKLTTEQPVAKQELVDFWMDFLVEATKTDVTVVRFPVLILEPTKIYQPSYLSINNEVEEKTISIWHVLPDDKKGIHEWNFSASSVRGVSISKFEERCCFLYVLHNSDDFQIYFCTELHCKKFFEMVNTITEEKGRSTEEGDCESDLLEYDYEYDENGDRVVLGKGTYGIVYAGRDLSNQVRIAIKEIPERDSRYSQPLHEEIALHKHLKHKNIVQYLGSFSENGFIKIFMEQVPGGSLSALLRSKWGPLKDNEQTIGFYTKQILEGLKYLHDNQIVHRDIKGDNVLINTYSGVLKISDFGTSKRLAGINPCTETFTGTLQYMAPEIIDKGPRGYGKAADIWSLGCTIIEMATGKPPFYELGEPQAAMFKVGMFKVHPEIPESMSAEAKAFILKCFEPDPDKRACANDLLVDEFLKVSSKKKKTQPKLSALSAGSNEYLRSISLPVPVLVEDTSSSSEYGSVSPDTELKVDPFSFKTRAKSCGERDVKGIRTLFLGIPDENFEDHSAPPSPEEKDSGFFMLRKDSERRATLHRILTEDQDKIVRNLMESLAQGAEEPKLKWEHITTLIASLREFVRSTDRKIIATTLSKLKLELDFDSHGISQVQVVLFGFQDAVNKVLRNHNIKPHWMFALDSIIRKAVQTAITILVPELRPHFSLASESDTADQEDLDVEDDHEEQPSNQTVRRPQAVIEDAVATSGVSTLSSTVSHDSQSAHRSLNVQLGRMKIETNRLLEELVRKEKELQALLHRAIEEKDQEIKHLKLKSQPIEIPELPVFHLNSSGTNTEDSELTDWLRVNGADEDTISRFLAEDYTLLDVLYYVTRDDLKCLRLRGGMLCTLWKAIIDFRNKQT
HIPK2 (human), sequence (Q9H2X6 whole entry, looked up): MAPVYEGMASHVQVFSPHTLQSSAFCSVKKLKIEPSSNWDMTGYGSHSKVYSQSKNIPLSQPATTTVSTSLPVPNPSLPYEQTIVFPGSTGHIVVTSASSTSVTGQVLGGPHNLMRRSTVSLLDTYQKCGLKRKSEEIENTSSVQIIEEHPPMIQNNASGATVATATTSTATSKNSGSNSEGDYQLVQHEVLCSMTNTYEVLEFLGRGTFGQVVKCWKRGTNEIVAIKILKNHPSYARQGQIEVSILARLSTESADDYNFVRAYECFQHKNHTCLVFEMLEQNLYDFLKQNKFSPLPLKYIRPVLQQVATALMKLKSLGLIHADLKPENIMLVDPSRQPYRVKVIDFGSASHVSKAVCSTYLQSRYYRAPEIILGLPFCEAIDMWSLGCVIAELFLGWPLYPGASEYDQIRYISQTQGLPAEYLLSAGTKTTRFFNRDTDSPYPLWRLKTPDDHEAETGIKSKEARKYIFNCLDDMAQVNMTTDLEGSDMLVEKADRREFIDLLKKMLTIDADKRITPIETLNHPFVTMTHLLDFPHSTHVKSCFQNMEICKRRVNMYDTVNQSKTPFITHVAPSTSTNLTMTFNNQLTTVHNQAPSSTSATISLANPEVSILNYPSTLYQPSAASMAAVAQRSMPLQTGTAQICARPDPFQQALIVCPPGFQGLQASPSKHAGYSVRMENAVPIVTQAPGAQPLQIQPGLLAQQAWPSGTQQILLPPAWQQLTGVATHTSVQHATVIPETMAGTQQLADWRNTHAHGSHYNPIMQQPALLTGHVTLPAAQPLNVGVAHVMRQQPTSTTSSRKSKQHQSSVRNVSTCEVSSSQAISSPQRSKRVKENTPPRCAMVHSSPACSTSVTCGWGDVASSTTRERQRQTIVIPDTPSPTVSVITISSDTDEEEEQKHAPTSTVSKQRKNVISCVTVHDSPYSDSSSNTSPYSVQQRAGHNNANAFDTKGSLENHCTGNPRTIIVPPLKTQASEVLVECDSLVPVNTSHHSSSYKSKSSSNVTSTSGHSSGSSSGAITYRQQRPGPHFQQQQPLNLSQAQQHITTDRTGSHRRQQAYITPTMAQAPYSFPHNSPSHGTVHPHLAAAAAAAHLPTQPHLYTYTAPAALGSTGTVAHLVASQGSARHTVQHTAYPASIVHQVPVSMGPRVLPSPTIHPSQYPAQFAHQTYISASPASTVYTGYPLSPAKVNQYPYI
PKN2 (human), sequence (Q16513 whole entry, looked up): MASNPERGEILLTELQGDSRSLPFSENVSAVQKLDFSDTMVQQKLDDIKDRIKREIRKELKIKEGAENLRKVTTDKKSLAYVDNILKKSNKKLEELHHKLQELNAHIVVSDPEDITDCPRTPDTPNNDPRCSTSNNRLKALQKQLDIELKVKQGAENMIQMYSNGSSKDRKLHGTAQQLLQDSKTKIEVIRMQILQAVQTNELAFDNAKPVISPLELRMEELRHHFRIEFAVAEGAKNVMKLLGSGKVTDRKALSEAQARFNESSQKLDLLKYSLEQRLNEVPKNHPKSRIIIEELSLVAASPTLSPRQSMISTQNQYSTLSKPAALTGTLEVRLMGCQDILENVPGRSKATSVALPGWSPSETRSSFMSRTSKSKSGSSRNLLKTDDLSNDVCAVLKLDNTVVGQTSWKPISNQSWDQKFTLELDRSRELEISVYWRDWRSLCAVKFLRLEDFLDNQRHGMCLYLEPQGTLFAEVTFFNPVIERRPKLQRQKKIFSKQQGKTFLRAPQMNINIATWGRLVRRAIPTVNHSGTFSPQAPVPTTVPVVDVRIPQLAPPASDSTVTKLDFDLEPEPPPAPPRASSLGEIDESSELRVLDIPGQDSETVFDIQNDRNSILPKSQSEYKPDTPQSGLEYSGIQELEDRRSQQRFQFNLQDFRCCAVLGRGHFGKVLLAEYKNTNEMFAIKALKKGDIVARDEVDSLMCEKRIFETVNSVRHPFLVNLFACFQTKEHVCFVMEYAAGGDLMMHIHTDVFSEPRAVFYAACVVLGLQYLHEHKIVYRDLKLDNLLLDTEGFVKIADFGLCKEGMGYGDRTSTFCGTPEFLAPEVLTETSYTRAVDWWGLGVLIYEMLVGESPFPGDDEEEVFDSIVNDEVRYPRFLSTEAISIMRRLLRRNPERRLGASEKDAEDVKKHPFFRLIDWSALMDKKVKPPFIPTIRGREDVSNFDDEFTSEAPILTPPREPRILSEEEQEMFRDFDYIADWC
MAPK13 (human), sequence (O15264 whole entry, looked up): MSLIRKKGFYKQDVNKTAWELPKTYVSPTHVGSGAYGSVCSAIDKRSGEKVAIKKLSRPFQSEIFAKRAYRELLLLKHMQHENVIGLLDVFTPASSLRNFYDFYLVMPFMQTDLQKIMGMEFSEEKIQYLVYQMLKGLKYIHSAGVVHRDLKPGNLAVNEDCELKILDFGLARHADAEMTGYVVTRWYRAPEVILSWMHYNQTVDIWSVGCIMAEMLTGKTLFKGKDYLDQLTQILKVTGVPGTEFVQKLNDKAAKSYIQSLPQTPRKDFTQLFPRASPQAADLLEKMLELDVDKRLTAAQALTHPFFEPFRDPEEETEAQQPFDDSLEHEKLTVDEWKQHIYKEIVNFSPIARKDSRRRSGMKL
CHEK1 (human), sequence (O14757 whole entry, looked up): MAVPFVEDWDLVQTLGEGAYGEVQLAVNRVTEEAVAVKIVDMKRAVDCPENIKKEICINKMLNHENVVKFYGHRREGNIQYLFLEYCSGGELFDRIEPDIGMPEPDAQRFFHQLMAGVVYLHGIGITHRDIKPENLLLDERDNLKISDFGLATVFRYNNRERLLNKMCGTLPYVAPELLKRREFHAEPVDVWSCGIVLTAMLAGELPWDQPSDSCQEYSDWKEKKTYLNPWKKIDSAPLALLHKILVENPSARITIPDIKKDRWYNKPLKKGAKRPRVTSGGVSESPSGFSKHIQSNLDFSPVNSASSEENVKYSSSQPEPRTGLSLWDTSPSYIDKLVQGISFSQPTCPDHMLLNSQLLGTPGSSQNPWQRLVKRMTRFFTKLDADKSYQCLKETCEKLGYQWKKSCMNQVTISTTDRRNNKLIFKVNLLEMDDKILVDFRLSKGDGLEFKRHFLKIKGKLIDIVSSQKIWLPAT
PAK2 (human), Q13177 [T402E], sequence (Q13177 whole entry T402E, looked up): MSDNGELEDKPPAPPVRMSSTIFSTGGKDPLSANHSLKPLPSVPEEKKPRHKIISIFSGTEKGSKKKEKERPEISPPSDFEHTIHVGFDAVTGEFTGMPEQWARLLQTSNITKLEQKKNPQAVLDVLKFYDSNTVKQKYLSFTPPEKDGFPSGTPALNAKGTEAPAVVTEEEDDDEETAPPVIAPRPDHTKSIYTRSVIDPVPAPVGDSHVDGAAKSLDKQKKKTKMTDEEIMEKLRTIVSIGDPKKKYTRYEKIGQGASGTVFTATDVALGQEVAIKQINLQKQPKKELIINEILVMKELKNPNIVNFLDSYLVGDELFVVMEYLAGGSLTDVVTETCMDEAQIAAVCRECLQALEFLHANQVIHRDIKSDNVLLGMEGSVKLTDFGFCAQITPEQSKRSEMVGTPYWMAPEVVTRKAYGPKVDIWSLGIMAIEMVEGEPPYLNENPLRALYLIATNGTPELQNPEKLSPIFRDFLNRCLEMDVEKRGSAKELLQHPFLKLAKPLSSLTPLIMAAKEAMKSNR

Compound: NC1(c2ccc(-c3nc4ccn5c(=O)[nH]nc5c4cc3-c3ccccc3)cc2)CCC1
- residual activity ([1]; compound 0.1 µM): 69%
- residual activity ([1]; compound 1.0 µM): 86%
- residual activity ([1]; compound 10.0 µM): 68%
- residual activity (AURKA (human); compound 0.1 µM): 114%
- residual activity (AURKA (human); compound 1.0 µM): 89%
- residual activity (AURKA (human); compound 10.0 µM): 93%
- residual activity (AURKB (human); compound 0.1 µM): 106%
- residual activity (AURKB (human); compound 1.0 µM): 88%
- residual activity (AURKB (human); compound 10.0 µM): 78%
- residual activity (CHEK1 (human); compound 0.1 µM): 96%
- residual activity (CHEK1 (human); compound 1.0 µM): 78%
- residual activity (CHEK1 (human); compound 10.0 µM): 45%
- residual activity (CSNK1D (human); compound 0.1 µM): 119%
- residual activity (CSNK1D (human); compound 1.0 µM): 100%
- residual activity (CSNK1D (human); compound 10.0 µM): 91%
- residual activity (EEF2K (human); compound 0.1 µM): 101%
- residual activity (EEF2K (human); compound 1.0 µM): 104%
- residual activity (EEF2K (human); compound 10.0 µM): 109%
- residual activity (EPHB1 (human); compound 0.1 µM): 96%
- residual activity (EPHB1 (human); compound 1.0 µM): 109%
- residual activity (EPHB1 (human); compound 10.0 µM): 100%
- residual activity (EPHB4 (human); compound 0.1 µM): 101%
- residual activity (EPHB4 (human); compound 1.0 µM): 105%
- residual activity (EPHB4 (human); compound 10.0 µM): 86%
- residual activity (FGFR1 (human); compound 0.1 µM): 100%
- residual activity (FGFR1 (human); compound 1.0 µM): 95%
- residual activity (FGFR1 (human); compound 10.0 µM): 70%
- residual activity (FLT1 (human); compound 0.1 µM): 88%
- residual activity (FLT1 (human); compound 1.0 µM): 81%
- residual activity (FLT1 (human); compound 10.0 µM): 53%
- residual activity (GCK (human); compound 0.1 µM): 108%
- residual activity (GCK (human); compound 1.0 µM): 97%
- residual activity (GCK (human); compound 10.0 µM): 85%
- residual activity (GSK3B (human); compound 0.1 µM): 104%
- residual activity (GSK3B (human); compound 1.0 µM): 85%
- residual activity (GSK3B (human); compound 10.0 µM): 72%
- residual activity (HIPK1 (human); compound 0.1 µM): 91%
- residual activity (HIPK1 (human); compound 1.0 µM): 85%
- residual activity (HIPK1 (human); compound 10.0 µM): 97%
- residual activity (HIPK2 (human); compound 0.1 µM): 102%
- residual activity (HIPK2 (human); compound 1.0 µM): 97%
- residual activity (HIPK2 (human); compound 10.0 µM): 80%
- residual activity (IGF1R (human); compound 0.1 µM): 116%
- residual activity (IGF1R (human); compound 1.0 µM): 85%
- residual activity (IGF1R (human); compound 10.0 µM): 55%
- residual activity (MAP2K2 (human); compound 0.1 µM): 103%
- residual activity (MAP2K2 (human); compound 1.0 µM): 99%
- residual activity (MAP2K2 (human); compound 10.0 µM): 90%
- residual activity (MAP3K1 (human); compound 0.1 µM): 114%
- residual activity (MAP3K1 (human); compound 1.0 µM): 101%
- residual activity (MAP3K1 (human); compound 10.0 µM): 83%
- residual activity (MAP3K5 (human); compound 0.1 µM): 97%
- residual activity (MAP3K5 (human); compound 1.0 µM): 87%
- residual activity (MAP3K5 (human); compound 10.0 µM): 90%
- residual activity (MAP3K9 (human); compound 0.1 µM): 110%
- residual activity (MAP3K9 (human); compound 1.0 µM): 93%
- residual activity (MAPK1 (human); compound 0.1 µM): 104%
- residual activity (MAPK1 (human); compound 1.0 µM): 96%
- residual activity (MAPK1 (human); compound 10.0 µM): 75%
- residual activity (MAPK10 (human); compound 0.1 µM): 93%
- residual activity (MAPK10 (human); compound 1.0 µM): 91%
- residual activity (MAPK10 (human); compound 10.0 µM): 84%
- residual activity (MAPK13 (human); compound 0.1 µM): 100%
- residual activity (MAPK13 (human); compound 1.0 µM): 90%
- residual activity (MAPK13 (human); compound 10.0 µM): 106%
- residual activity (MAPK9 (human); compound 0.1 µM): 83%
- residual activity (MAPK9 (human); compound 1.0 µM): 94%
- residual activity (MAPK9 (human); compound 10.0 µM): 97%
- residual activity (MARK4 (human); compound 0.1 µM): 98%
- residual activity (MARK4 (human); compound 1.0 µM): 102%
- residual activity (MARK4 (human); compound 10.0 µM): 92%
- residual activity (MELK (human); compound 0.1 µM): 80%
- residual activity (MELK (human); compound 1.0 µM): 75%
- residual activity (MELK (human); compound 10.0 µM): 80%
- residual activity (MYLK (human); compound 0.1 µM): 87%
- residual activity (MYLK (human); compound 1.0 µM): 85%
- residual activity (MYLK (human); compound 10.0 µM): 72%
- residual activity ([2]; compound 0.1 µM): 98%
- residual activity ([2]; compound 1.0 µM): 94%
- residual activity ([2]; compound 10.0 µM): 103%
- residual activity (PAK6 (human); compound 0.1 µM): 85%
- residual activity (PAK6 (human); compound 1.0 µM): 100%
- residual activity (PAK6 (human); compound 10.0 µM): 91%
- residual activity (PKN2 (human); compound 0.1 µM): 95%
- residual activity (PKN2 (human); compound 1.0 µM): 96%
- residual activity (PKN2 (human); compound 10.0 µM): 92%
- residual activity (PRKCZ (human); compound 0.1 µM): 97%
- residual activity (PRKCZ (human); compound 1.0 µM): 105%
- residual activity (PRKCZ (human); compound 10.0 µM): 97%
- residual activity (SRC (human); compound 0.1 µM): 101%
- residual activity (SRC (human); compound 1.0 µM): 89%
- residual activity (SRC (human); compound 10.0 µM): 105%
- residual activity ([3]; compound 0.1 µM): 102%
- residual activity ([3]; compound 1.0 µM): 85%
- residual activity ([3]; compound 10.0 µM): 86%
- residual activity (SYK (human); compound 0.1 µM): 116%
- residual activity (SYK (human); compound 1.0 µM): 100%
- residual activity (SYK (human); compound 10.0 µM): 96%
- residual activity (TAOK1 (human); compound 0.1 µM): 104%
- residual activity (TAOK1 (human); compound 1.0 µM): 90%
- residual activity (TAOK1 (human); compound 10.0 µM): 85%
- residual activity (TTK (human); compound 0.1 µM): 106%
- residual activity (TTK (human); compound 1.0 µM): 105%
- residual activity (TTK (human); compound 10.0 µM): 80%
- residual activity (YES1 (human); compound 0.1 µM): 102%
- residual activity (YES1 (human); compound 1.0 µM): 99%
- residual activity (YES1 (human); compound 10.0 µM): 68%
